Laboratory results: patent publication US10285989B2, “Pyrimidinone amide compounds as PDE2 inhibitors” (Merck Sharp & Dohme Corp., priority 2015, dated 2019)
Where two headings read alike, the source gives them in different places.

Biological target: human PDE2A1 (Homo sapiens (Human), UniProt O00408)
Experiment: PDE2 IMAP FP inhibition assay, human PDE2A1 (selectivity panel format)
Format: biochemical
Settings: for inhibition at 3 µM: read-out: Human PDE2 % inhibition at a given concentration - Lab B
Procedure: Selectivity for PDE2, as compared to other PDE families, was assessed using the IMAP® technology. Human PDE10A2 enzyme was prepared from cytosolic fractions of transiently transfected HEK cells.
A Labcyte POD 810 (Labcyte, Sunnyvale, Calif.) was used to dispense 200 nL from each well of the titration plate to make eleven copies of the assay plate for each titration, one copy for each PDE enzyme. A solution of each enzyme (dilution from aliquots, sufficient to produce 20% substrate conversion) and a separate solution of FAM-labeled cAMP or FAM-labeled cGMP from Molecular Devices (Sunnyvale, Calif., product # R7506 or cGMP#R7508), at a final concentration of 50 nM were made in the assay buffer (10 mM Tris HCl, pH 7.2, 10 mM MgCl2, 0.05% NaN3 0.01% Tween-20, and 1 mM DTT). Note that the substrate for PDE2 is 50 nM FAM cAMP containing 1000 nM of cGMP. The enzyme and the substrate were then added to the assay plates in two consecutive additions of 10 μL and then shaken to mix. The reaction was allowed to proceed at room temperature for 60 minutes. A binding solution was then made from the kit components, comprised of 80% Solution A, 20% Solution B and binding reagent at a volume of 1/600 the total binding solution. The enzymatic reaction was stopped by addition of 60 μL of the binding solution to each well of the assay plate. The plates were sealed and shaken for 10 seconds. The plates were incubated at room temperature for one hour, then the parallel and perpendicular fluorescence was measured using a Tecan Genios Pro plate reader (Tecan, Switzerland). […] The intrinsic PDE2 inhibitory activity of a compound which may be used in accordance with the present invention may be determined by these assays. […]

[1] = Lab B, read-out: Human PDE2 Ki (nM) - Lab B

human PDE2A1, sequence (O00408 other isoform, or with tags, fused parts or gaps): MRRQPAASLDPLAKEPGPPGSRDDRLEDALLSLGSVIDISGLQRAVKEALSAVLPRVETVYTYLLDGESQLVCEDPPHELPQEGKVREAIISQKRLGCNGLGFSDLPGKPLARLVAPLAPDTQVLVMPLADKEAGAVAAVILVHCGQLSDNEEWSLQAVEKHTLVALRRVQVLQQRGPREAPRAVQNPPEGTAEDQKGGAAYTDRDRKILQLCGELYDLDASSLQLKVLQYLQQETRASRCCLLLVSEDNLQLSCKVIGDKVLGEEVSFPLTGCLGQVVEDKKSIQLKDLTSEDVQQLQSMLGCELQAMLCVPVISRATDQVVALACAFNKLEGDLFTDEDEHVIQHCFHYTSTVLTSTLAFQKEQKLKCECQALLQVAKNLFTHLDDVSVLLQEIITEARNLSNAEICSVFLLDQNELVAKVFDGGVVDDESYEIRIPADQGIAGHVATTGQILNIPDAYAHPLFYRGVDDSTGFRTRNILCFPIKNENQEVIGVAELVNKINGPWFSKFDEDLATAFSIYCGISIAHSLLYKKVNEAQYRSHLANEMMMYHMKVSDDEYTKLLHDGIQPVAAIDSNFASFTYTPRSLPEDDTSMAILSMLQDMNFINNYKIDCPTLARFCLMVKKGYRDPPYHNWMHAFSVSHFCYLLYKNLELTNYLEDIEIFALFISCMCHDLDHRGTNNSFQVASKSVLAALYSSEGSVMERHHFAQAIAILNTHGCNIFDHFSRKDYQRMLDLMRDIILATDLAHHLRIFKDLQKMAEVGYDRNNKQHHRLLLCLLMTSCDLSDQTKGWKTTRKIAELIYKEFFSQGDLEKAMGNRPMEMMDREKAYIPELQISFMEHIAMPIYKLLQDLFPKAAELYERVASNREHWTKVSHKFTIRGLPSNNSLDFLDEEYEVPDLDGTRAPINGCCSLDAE

Row | Compound | Ki [1] | also measured
1 | CC(=O)C(NC(=O)c1cc(=O)[nH]c(N(C)C)n1)c1ccc(C(F)(F)F)cc1 (stereo not drawn) [Example 197, 2-(dimethylamino)-6-oxo-N-{2-oxo-1-[4-(trifluoromethyl)phenyl]propyl}-1,6-dihydropyrimidine-4-carboxamide] | 3.6 nM | 
2 | CN(C)c1nc(C(=O)NC(c2ccc(C3(C)CC3)c(F)c2)C(C)(C)C)cc(=O)[nH]1 (single isomer, unassigned) [Example 123, (S)- or (R)-2-(dimethylamino)-N-{1-[3-fluoro-4-(1-methylcyclopropyl)phenyl]-2,2-dimethylpropyl}-6-oxo-1,6-dihydropyrimidine-4-carboxamide] | 167 nM | 
3 | CN(C)c1nc(C(=O)N[C@H](c2ccc(C(F)(F)F)cc2)C(C)(C)C)cc(=O)[nH]1 [Example 72, 2-(dimethylamino)-N-{(1S)-2,2-dimethyl-1-[4-(trifluoromethyl)phenyl]propyl}-6-oxo-1,6-dihydropyrimidine-4-carboxamide] | 17 nM | 
4 | CN(C)c1nc(C(=O)N[C@@H](c2ccc(OC(F)(F)F)c(F)c2)C(C)(C)O)cc(=O)[nH]1 [Example 208, 2-(dimethylamino)-N-{(1S)-1-[3-fluoro-4-(trifluoromethoxy)phenyl]-2-hydroxy-2-methylpropyl}-6-oxo-1,6-dihydropyrimidine-4-carboxamide] | 0.12 nM | 
5 | CN(C)c1nc(C(=O)N[C@@H](c2ccc(S(F)(F)(F)(F)F)cc2)C(C)(C)O)cc(=O)[nH]1 [Example 211, 2-(dimethylamino)-N-{(1S)-2-hydroxy-2-methyl-1-[4-(pentafluoro-λ^6-sulfanyl)phenyl]propyl}-6-oxo-1,6-dihydropyrimidine-4-carboxamide] | 0.073 nM | 
6 | CC[C@@H](NC(=O)c1cc(=O)[nH]c(N(C)C)n1)c1ccc(C(F)F)cc1 [Example 67, N-{(1R)-1-[4-(difluoromethyl)phenyl]propyl}-2-(dimethylamino)-6-oxo-1,6-dihydropyrimidine-4-carboxamide] | 6.9 nM | 
7 | COC(=O)C(NC(=O)c1cc(=O)[nH]c(N(C)C)n1)c1ccc(C(F)(F)F)cc1 (stereo not drawn) [Example 205, methyl ({[2-(dimethylamino)-6-oxo-1,6-dihydropyrimidin-4-yl]carbonyl}amino)[4-(trifluoromethyl)phenyl]acetate] | 49 nM | 
8 | CN(C)c1nc(C(=O)NC2(c3ccc(OC(F)(F)F)cc3)CCC2)cc(=O)[nH]1 [Example 201, 2-(dimethylamino)-6-oxo-N-{1-[4-(trifluoromethoxy)phenyl]cyclobutyl}-1,6-dihydropyrimidine-4-carboxamide] | 18 nM | 
9 | CN(C)c1nc(C(=O)NC(c2ccc(SC(F)(F)F)c(F)c2)C2(C)CC2)cc(=O)[nH]1 (single isomer, unassigned) [Example 119, (S)- or (R)-2-(dimethylamino)-N-[{3-fluoro-4-[(trifluoromethyl)sulfanyl]phenyl}(1-methylcyclopropyl)methyl]-6-oxo-1,6-dihydropyrimidine-4-carboxamide] |  | inhibition at 3 µM (Lab B): 49%
10 | CN(C)c1nc(C(=O)NC(CC#N)c2ccc(C(F)(F)F)cc2)cc(=O)[nH]1 (stereo not drawn) [Example 203, N-{2-cyano-1-[4-(trifluoromethyl)phenyl]ethyl}-2-(dimethylamino)-6-oxo-1,6-dihydropyrimidine-4-carboxamide] | 22 nM | 
11 | CC(NC(=O)c1cc(=O)[nH]c(N(C)C)n1)c1ccc(C(C)(C)C(F)(F)F)cc1 (single isomer, unassigned) [Example 122, (R)- or (S)-2-(dimethylamino)-6-oxo-N-{1-[4-(2,2,2-trifluoro-1,1-dimethylethyl)phenyl]ethyl}-1,6-dihydropyrimidine-4-carboxamide] | 34 nM | 
12 | CC(NC(=O)c1cc(=O)[nH]c(N(C)C)n1)c1ccc(C2(C(F)(F)F)CC2)cc1 (single isomer, unassigned) [Example 125, (S)- or (R)-2-(dimethylamino)-6-oxo-N-[1-{4-[1-(trifluoromethyl)cyclopropyl]phenyl}ethyl]-1,6-dihydropyrimidine-4-carboxamide] |  | inhibition at 3 µM (Lab B): 38%
13 | CN(C)c1nc(C(=O)NC(C)(C)c2ccc(OC(F)(F)F)cc2F)cc(=O)[nH]1 [Example 81, 2-(dimethylamino)-N-{1-[2-fluoro-4-(trifluoromethoxy)phenyl]-1-methylethyl}-6-oxo-1,6-dihydropyrimidine-4-carboxamide] | 21 nM | 
14 | C[C@@H](NC(=O)c1cc(=O)[nH]c(N(C)C)n1)c1ccc(S(F)(F)(F)(F)F)cc1F [Example 116, (R)-2-(dimethylamino)-N-(1-(4-(pentafluorothio)-2-fluorophenyl)ethyl)-6-oxo-1,6-dihydropyrimidine-4-carboxamide] | 749 nM | 
15 | CN(C)c1nc(C(=O)NC(C#N)c2ccc(C(F)(F)F)cc2)cc(=O)[nH]1 (stereo not drawn) [Example 199, N-{cyano[4-(trifluoromethyl)phenyl]methyl}-2-(dimethylamino)-6-oxo-1,6-dihydropyrimidine-4-carboxamide] | 27 nM | 
16 | C[C@H]1C[C@]1(NC(=O)c1cc(=O)[nH]c(N(C)C)n1)c1ccc(C(F)(F)F)cc1 (single isomer, unassigned; enantiomer a) [Example 174, 2-(dimethylamino)-N-{2-methyl-1-[4-(trifluoromethyl)phenyl]cyclopropyl}-6-oxo-1,6-dihydropyrimidine-4-carboxamide (cis, enantiomer A)] | 2.7 nM | 
17 | CN(C)c1nc(C(=O)N[C@](C)(CO)c2ccc(C(F)(F)F)cc2Cl)cc(=O)[nH]1 [Example 200, N-{(1S)-1-[2-chloro-4-(trifluoromethyl)phenyl]-2-hydroxy-1-methylethyl}-2-(dimethylamino)-6-oxo-1,6-dihydropyrimidine-4-carboxamide] | 0.52 nM | 
18 | CC(C)[C@@H](NC(=O)c1cc(=O)[nH]c(N2CC[C@@H](O)C2)n1)c1ccc(OC(F)(F)F)c(F)c1 [Example 166, N-{(1R)-1-[3-fluoro-4-(trifluoromethoxy)phenyl]-2-methylpropyl}-2-[(3R)-3-hydroxypyrrolidin-1-yl]-6-oxo-1,6-dihydropyrimidine-4-carboxamide] |  | Ki (Lab A, read-out: Human PDE2 Ki (nM) - Lab A): 1.3 nM
19 | CN(C)c1nc(C(=O)NC(c2ccncc2)c2ccc(C(F)(F)F)cc2)cc(=O)[nH]1 (stereo not drawn) [Example 196, 2-(dimethylamino)-6-oxo-N-{pyridin-4-yl[4-(trifluoromethyl)phenyl]methyl}-1,6-dihydropyrimidine-4-carboxamide] | 91 nM | 
20 | CC(C)[C@@H](NC(=O)c1cc(=O)[nH]c(O)n1)c1ccc(SC(F)(F)F)cc1 [Example 20, (R)-2-hydroxy-N-(2-methyl-1-(4-((trifluoromethyl)thio)phenyl)propyl)-6-oxo-1,6-dihydropyrimidine-4-carboxamide] | 329 nM | 
21 | CN(C)c1nc(C(=O)N[C@@H](c2ccc(OC(F)F)c(F)c2)C2CC2)cc(=O)[nH]1 [Example 53, N-{(R)-cyclopropyl[4-(difluoromethoxy)-3-fluorophenyl]methyl}-2-(dimethylamino)-6-oxo-1,6-dihydropyrimidine-4-carboxamide] | 4 nM | 
22 | CN(C)c1nc(C(=O)NC2(c3ccc(C(F)(F)F)cc3)CCCC2)cc(=O)[nH]1 [Example 202, 2-(dimethylamino)-6-oxo-N-{1-[4-(trifluoromethyl)phenyl]cyclopentyl}-1,6-dihydro-pyrimidine-4-carboxamide] | 5.4 nM | 
23 | CN(C)c1nc(C(=O)NC(c2ccc(C(F)(F)F)cc2)C(F)(F)F)cc(=O)[nH]1 (stereo not drawn) [Example 207, 2-(dimethylamino)-6-oxo-N-{2,2,2-trifluoro-1-[4-(trifluoromethyl)phenyl]ethyl}-1,6-dihydropyrimidine-4-carboxamide] | 2.9 nM | 
24 | CN(C)c1nc(C(=O)NC2(c3ccc(CC(F)(F)F)cc3)CC2)cc(=O)[nH]1 [Example 51, 2-(dimethylamino)-6-oxo-N-{1-[4-(2,2,2-trifluoroethyl)phenyl]cyclopropyl}-1,6-dihydropyrimidine-4-carboxamide] | 9.7 nM | 
25 | CN(C)c1nc(C(=O)NC2(c3ccc(OC(F)F)cc3)CC2)cc(=O)[nH]1 [Example 52, N-{1-[4-(difluoromethoxy)phenyl]cyclopropyl}-2-(dimethylamino)-6-oxo-1,6-dihydropyrimidine-4-carboxamide] | 11 nM | 
26 | CN(C)c1nc(C(=O)NC2(c3ccc(C(F)(F)F)cc3F)CC2)cc(=O)[nH]1 [Example 49, 2-(dimethylamino)-N-{1-[2-fluoro-4-(trifluoromethyl)phenyl]cyclopropyl}-6-oxo-1,6-dihydropyrimidine-4-carboxamide] | 2.7 nM | 
27 | CN(C)c1nc(C(=O)NC2(c3ccc(C(F)F)c(F)c3)CC2)cc(=O)[nH]1 [Example 70, N-{1-[4-(difluoromethyl)-3-fluorophenyl]cyclopropyl}-2-(dimethylamino)-6-oxo-1,6-dihydropyrimidine-4-carboxamide] | 9.7 nM | 
